Laboratory results reported in patent US20050239758A1, “Hormone treatment of multiple sclerosis” (priority 2004, published 2005).

Assays:
[1] = test system: multiple sclerosis symptoms; test: Clinical case: daily sublingual dilute progesterone in a patient with multiple sclerosis; type: in vivo, human
Description: An adult human presented with a diagnosis of multiple sclerosis (MS) from a group of neurologists specializing in MS. They had confirmed the diagnosis with magnetic resonance imaging (MRI) scans showing demylination of major nerves. They were evaluated for hormone allergy therapy by assessing their anti-hormone antibodies and found to have elevated levels of anti-progesterone IgG and IgM antibodies. They then received progesterone 1:10 sublingual treatment, daily. Within a month of their initial diagnosis, they rated their symptoms at a 10 on a scale of 1-10, with 10 representing the worst symptoms experienced. A year after diagnosis, but before beginning low dosage hormone therapy, they rated their symptoms at a 5. They then began receiving daily sublingual progesterone (1:10) treatment. They reported an immediate reduction of their symptoms to a 3 or 4. After over a year of therapy, they reported their symptoms to be generally about a 2 with days where they have been a 0 or 1. On one occasion, the subject ran out of drops and, therefore, temporarily discontinued therapy.

serum anti-estrogen IgG = test: Competition ELISA: absorption of serum anti-estrogen IgG with specific and non-specific antigens; type: binding, human; conditions: for Percent inhibition of serum anti-estrogen IgG after absorption: absorption with 250 μg/mL antigen, NS = non-significant; for Inhibition of anti-estrogen binding to estrogen (IgG): antigen in liquid phase, range over the samples; for Absorption of serum IgG antibodies by antigen added to the liquid phase: competition ELISA, result in words
Description: (§1) Enzyme-linked immunosorbent assay (ELISA) was used for testing antibodies against estrogen and progesterone in the sera of patients with premenstrual asthma and with control subjects. Different rows of microtiter plates (Costar) were coated either with 100 μl of BSA concentration of 10 μg/mL or 100 μl of estrogen-BSA or progesterone-BSA optimal concentration of 10 μg/mL in 0.1 m carbonate-bicarbonate buffer (pH 9.5). Plates were incubated overnight at 4° C. and then washed three times with […] of Tris-buffered saline (TBS) containing 0.05% Tween 20, pH 7.4. […] Plates were washed with PBS-Tween 20 and then 100 μl of control or patient's serum was added to duplicate wells coated either with BSA alone or with estrogen or progesterone bound to BSA. […] Plates were incubated for 2 h (for IgG and IgM) and overnight (for IgE), and then washed four times with PBS-Tween 20. Alkaline-phosphatase-conjugated goat anti-human IgG, IgM or IgE F(ab′)2 fragment at optimal dilution of 1:700 (IgG); 1:500 (IgM) and 1:250 (IgE) was added to corresponding wells. The plates were then incubated for an additional 2 h at room temperature. After washing five times with TBS-Tween buffer, the enzyme reaction was started by adding 100 μl of para-nitrophenylphosphate in 0.1 mL of diethanolamine buffer (1 mg/ml) containing 1 mM MgCl2 and sodium azide, pH 9.8. The reaction was stopped 45 minutes later with 50 μl of 1 N NaOH. The optical density was read at 405 nm (OD405) with a microtiter reader. […] However, this non-specific O.D. was subtracted from wells coated with estrogen or progesterone bound to BSA.
(§2) For this, microtiter plates were coated with hormones and blocked by the addition of 2% BSA in PBST. 100 μl of serum diluent buffer was added to all wells. […] After a 60-minute incubation, 100 μl serum anti-estrogen or anti-progesterone was added to all wells. […] Results were calculated as a percentage of inhibition in antigen-antibody reaction.
(§3) To examine whether antibodies to estrogen or progesterone are specific or cross-reactive, competition ELISA was performed by adding specific and non-specific antigens in liquid phase and examined prevention of serum antibody binding to the antigen in solid phase. […] This cross-reaction between estrogen and progesterone antibodies may be due to structural similarities between these two hormones.

serum anti-estrogen IgE = test: Competition ELISA: absorption of serum anti-estrogen IgE with specific and non-specific antigens; type: binding, human; conditions: for Percent inhibition of serum anti-estrogen IgE after absorption: absorption with 250 μg/mL antigen, NS = non-significant; for Inhibition of IgE anti-estrogen binding: antigen in liquid phase, range over the samples; for Absorption of serum IgE antibodies by antigen added to the liquid phase: competition ELISA, result in words
Description: as §1, §2, §3

Row | Molecule | Symptoms on temporary discontinuation of therapy ([1]; ran out of drops, over a period of several days until therapy restarted) | Self-rated symptoms, generally, after over a year of therapy ([1]; scale of 1-10, 10 = worst, progesterone 1:10 sublingual daily, rated 5 before therapy) | Percent inhibition of serum anti-estrogen IgG after absorption (serum anti-estrogen IgG; Sample 1) | Percent inhibition of serum anti-estrogen IgG after absorption (serum anti-estrogen IgG; Sample 2) | Percent inhibition of serum anti-estrogen IgG after absorption (serum anti-estrogen IgG; Sample 3) | Inhibition of anti-estrogen binding to estrogen (IgG) (serum anti-estrogen IgG) | Absorption of serum IgG antibodies by antigen added to the liquid phase (serum anti-estrogen IgG) | Percent inhibition of serum anti-estrogen IgE after absorption (serum anti-estrogen IgE; Sample 1) | Percent inhibition of serum anti-estrogen IgE after absorption (serum anti-estrogen IgE; Sample 2) | Percent inhibition of serum anti-estrogen IgE after absorption (serum anti-estrogen IgE; Sample 3) | Inhibition of IgE anti-estrogen binding (serum anti-estrogen IgE) | Absorption of serum IgE antibodies by antigen added to the liquid phase (serum anti-estrogen IgE)
1 | CC(=O)[C@H]1CC[C@H]2[C@@H]3CCC4=CC(=O)CC[C@]4(C)[C@H]3CC[C@]12C [progesterone] | steadily worsened | ~2 |  |  |  |  |  |  |  |  |  | 
2 | Estrogen-BSA |  |  | (67%) | (59%) | (52%) | 52-67% | significantly absorbed | (55%) | (54%) | (62%) | 54-62% | significantly absorbed
3 | Progesterone-BSA [Pn] |  |  | (52%) | (45%) | (41%) | 41-52% | significantly absorbed | (37%) | (41&) % | (43%) | 37-43% | significantly absorbed
4 | bovine serum albumin [BSA] |  |  |  |  |  |  | did not absorb |  |  |  |  | did not absorb
5 | myelin basic protein (protein, UniProt P02686 1-304, looked up) Myelin basic protein: MGNHAGKRELNAEKASTNSETNRGESEKKRNLGELSRTTSEDNEVFGEADANQNNGTSSQDTAVTDSKRTADPKNAWQDAHPADPGSRPHLIRLFSRDAPGREDNTFKDRPSESDELQTIQEDSAATSESLDVMASQKRPSQRHGSKYLATASTMDHARHGFLPRHRDTGILDSIGRFFGGDRGAPKRGSGKDSHHPARTAHYGSLPQKSHGRTQDENPVVHFFKNIVTPRTPPPSQGKGRGLSLSRFSWGAEGQRPGFGYGGRASDYKSAHKGFKGVDAQGTLSKIFKLGGRDSRSGSPMARR |  |  |  |  |  |  | did not absorb |  |  |  |  | did not absorb
